Source: US12186740B2, “Kits comprising containers with at least one solid catalytically active compound, and their uses in solid state reaction” (RD&C Research, Development & Consulting GmbH, priority 2018, dated 2025)
Read-outs that look alike come from different tables or passages of the source.

Legend:
[1] = Proof of concept: solid phase oxidation in a ball mill with a solid catalyst; type: physicochemical
Protocol: The first experiment was focused on a simple, well characterized API and other molecules with low structural complexity but with representative functional groups. They were systematically combined with a selection of potentially suitable catalysts. The solid phase reactions were initiated by ball milling for energy transfer in a controlled environment. In a first experimental set-up the oxidation in solid phase systems was analysed including a systematic evaluation of various catalysts, carrier matrices and reaction conditions.
The following analytical methods were implemented. Two solid phase oxidation reactions were prepared. The catalyst used was KMnO4 on silica and the active reaction container was a ball mill.

[2] = acidic stressor at 40° C./75% relative humidity for 3 months; cited from earlier work
[3] = after 60 minutes process time
[4] = 90 min, no additives
Protocol: As documented in literature clopidogrel bisulphate exists in one amorphous and two polymorphic forms, polymorph II was used for the experiments described. To elucidate the stability and detect changes of the polymorphic form after energy input a simple experimental set-up with the API and no further additives was executed and the polymorphic form was analysed by WAXS (wide-angel X-ray scattering) and DSC (differential scanning calorimetry).
These experiments could be used to evaluate the stability of various polymorphic forms in general, but could also indicate the stability/instability during industrial processing and manufacturing.

[5] = KMnO4 on aluminium oxide, dry; process times 60 to 300 minutes

Compound	oxidation product(s) formed ([1]; KMnO4 on silica, ball mill)	oxidation product(s) formed ([1]; on aluminium oxide)	acidic degradation product (RT 15 min) [2]	quantity of degradation, solid phase conditions vs conventional forced degradation conditions ([3]; based on AUCs in the HPLC method)	acidic degradation product (RT 15 min) ([3]; solid phase set-up, acidic solid phase catalyst)	polymorphic form after milling (DSC profile) ([4]; milling 10 Hz)	polymorphic form after milling (DSC profile) ([4]; milling 25 Hz)	follow-up or second line degradation products [5]	oxidative degradation products formed [5]	time-dependency of the degradation reaction [5]
c1ccc(Sc2ccccc2)cc1 [diphenylsulfide]	diphenylsulfoxide and diphenylsulfone	solely the higher oxidation state product diphenyl sulfone, but no diphenylsulfoxide								
COC(=O)[C@H](c1ccccc1Cl)N1CCc2sccc2C1 [clopidogrel bisulphate]			detected	comparable amount	could also be detected	minor changes and higher stability	change of the polymorphic form II to the amorphous state	no follow-up or second line degradation products occurred	two oxidative solid phase degradation products	clear time-dependency
